US6939845B2, “Fragrance precursors” (Givaudan SA, priority 2000, dated 2005)

Test: Stability tests in aqueous buffer solutions
Format: physicochemical
Settings: for Stability at pH 2.5: aqueous buffer pH 2.5, 24 h at 37° C.; for Stability at pH 7: aqueous buffer pH 7, 24 h at 37° C.; for Stability at pH 9.5: aqueous buffer pH 9.5, 24 h at 37° C.

SMILES	Stability at pH 2.5	Stability at pH 7	Stability at pH 9.5
Cc1cc2c(cc1C(=O)COC1CCC3(CCC(C)CC3)O1)C(C)(C)CC(C)C2(C)C (stereo not drawn) [compound 1, 1-(3,5,5,6,8,8-Hexamethyl-5,6,7,8-tetrahydro-naphtalen-2-yl)-2-(8-methyl-1-oxa-spiro[4.5]dec-2-yloxy)-ethanone]	stable	stable	stable
CCCCCCCC1CCC(OCC(=O)c2ccc(OC)cc2)O1 (stereo not drawn) [compound 4, 2-(5-Heptyl-tetrahydro-furan-2-yloxy)-1-(4-methoxy-phenyl)-ethanone]	unstable	stable	stable
CCCCCCCC1CCC(OCC(=O)c2ccc3ccccc3c2)O1 (stereo not drawn) [compound 3, 2-(5-Heptyl-tetrahydro-furan-2-yloxy)-1-naphtalen-2-yl-ethanone]	unstable	stable	stable
C/C=C/CCC1CCCC(OCC(=O)c2cc3c(cc2C)C(C)(C)C(C)CC3(C)C)O1 (stereo not drawn) [compound 5, 1-(3,5,5,6,8,8-Hexamethyl-5,6,7,8-tetrahydro-naphthalen-2-yl)-2-(6-pent-3-enyl-tetrahydro-pyran-2-yloxy)-ethanone]	stable	stable	stable
C/C=C/CCC1CCCC(OCC(=O)c2ccc3ccccc3c2)O1 (stereo not drawn) [compound 6, 1-(Naphtalen-2-yl)-2-(6-pent-3-enyl-tetrahydro-pyran-2-yloxy)-ethanone]	unstable	stable	stable
CCCCCCCC1CCC(OCC(=O)c2cc3c(cc2C)C(C)(C)C(C)CC3(C)C)O1 (stereo not drawn) [compound 2, 2-(5-Heptyl-tetrahydro-furan-2-yloxy)-1-(3,5,5,6,8,8-hexamethyl-5,6,7,8-tetrahydro-naphtalen-2-yl)-ethanone]	stable	stable	stable
